Reference: patent EP0555116B1, “Compositions based on antiseptics and their applications” (HUTCHINSON, priority 1992, dated 1993)

Key:
[1] = system: Candida albicans ATCC 1031; assay: Disinfection time test (Essai 2, Tables D-F), reaction at 22°, subcultures 72 h at 37°C; type: cell-based
Method: (§1) Un autre essai a été réalisé à partir des solutions suivantes : • 100 ml d'une solution à 0,1 % de digluconate de chlorhexidine (pH 6) et • 100 ml d'une solution à 0,1 % de Bardac 22®.
(§2) Les tests ont été réalisés conformément au protocole décrit dans le Chapitre I/2.1 et 2.2 de Richtlinien für die Prüfung und Bewertung chemischer Desinfektionsverfahren der DGHM, Stand 1.1., 1981).
(§3) Les tests dont les résultats sont illustrés aux Tableaux D, E et F ont été réalisés à une température de réaction de 22° avec une incubation des sous-cultures 72 heures à 37°C avec comme substances inactivantes : Tween® 80 3 % + saponine 3 % + cystéine 0,1 % + histidine 0,1 %; ces Tableaux illustrent respectivement l'activité bactéricide et fongicide d'une solution aqueuse à 0,1 % de digluconate de chlorhexidine, d'une solution aqueuse à 0,1 % de Bardac 22® et d'un mélange à part égale des deux composés et montrent l'action des antiseptiques précités, en fonction du temps de contact, et font apparaître la même synergie d'action de l'association que ci-dessus, dans la mesure où l'association des deux composés permet de diminuer significativement leur concentration, pour l'obtention d'un même effet. TABLEAU D

S. aureus ATCC 6538 = assay: as above; type: cell-based, Staphylococcus aureus
Method: as §1, §2, §3

[2] = system: Candida albicans ATCC 1031; assay: Growth inhibition test (DGHM, Essai 2, Tables A-C), 72 h at 37°C; non/A/B/C = without or with inactivating substances A, B, C; type: cell-based
Method: Un autre essai a été réalisé à partir des solutions suivantes : • 100 ml d'une solution à 0,1 % de digluconate de chlorhexidine (pH 6) et • 100 ml d'une solution à 0,1 % de Bardac 22®. […]
as §2
Les Tableaux A, B et C illustrent respectivement l'activité bactéricide et fongicide d'une solution aqueuse à 0,1 % de digluconate de chlorhexidine, d'une solution aqueuse à 0,1 % de Bardac 22® et d'un mélange à part égale des deux composés. Les protocoles dont ces Tableaux illustrent les résultats comprennent une incubation de 72 heures à 37°C et l'utilisation, comme témoins, des substances inactivantes suivantes : A : Tween® 80 3 % + lécithine 0,3 % + cystéine 0,1 %; B : Tween® 80 3 % + saponine 3 % + cystéine 0,1 % + histidine 0,1 %; C : Tween® 80 3 % + lécithine 0,3 % + histidine 0,1 % + thiosulfate de sodium 0,5 %.
Dans ces Tableaux, le signe "+" indique une croissance et le signe "-" l'absence de croissance.

Q: What does the source list for `CCCCCCCCCC[N+](C)(C)CCCCCCCCCC` [Bardac®, chlorure de didécyldiméthylammonium]?
A: croissance ([1]; Conc. 0,1 % (vol/vol), 1 min): +; croissance ([1]; Conc. 0,1 % (vol/vol), 3 min): +; croissance ([1]; Conc. 0,1 % (vol/vol), 5 min): +; croissance ([1]; Conc. 0,1 % (vol/vol), 15 min): +; croissance ([1]; Conc. 0,1 % (vol/vol), 30 min): +; croissance ([1]; Conc. 0,1 % (vol/vol), 60 min): +; croissance ([1]; Conc. 0,05 % (vol/vol), 1 min): +; croissance ([1]; Conc. 0,5 % (vol/vol), 1 min): +; croissance ([1]; Conc. 0,05 % (vol/vol), 3 min): +; croissance ([1]; Conc. 0,5 % (vol/vol), 3 min): +; croissance ([1]; Conc. 0,05 % (vol/vol), 5 min): +; croissance ([1]; Conc. 0,5 % (vol/vol), 5 min): +; croissance ([1]; Conc. 0,05 % (vol/vol), 15 min): +; croissance ([1]; Conc. 0,5 % (vol/vol), 15 min): +; croissance ([1]; Conc. 0,05 % (vol/vol), 30 min): +; croissance ([1]; Conc. 0,5 % (vol/vol), 30 min): +; croissance ([1]; Conc. 0,05 % (vol/vol), 60 min): +; croissance ([1]; Conc. 0,5 % (vol/vol), 60 min): +; croissance ([1]; Conc. 1 % (vol/vol), 1 min): +; croissance ([1]; Conc. 1 % (vol/vol), 3 min): +; croissance ([1]; Conc. 1 % (vol/vol), 5 min): +; croissance ([1]; Conc. 1 % (vol/vol), 15 min): +; croissance ([1]; Conc. 1 % (vol/vol), 30 min): -; croissance ([1]; Conc. 1 % (vol/vol), 60 min): -; croissance ([1]; Conc. 5 % (vol/vol), 1 min): +; croissance ([1]; Conc. 5 % (vol/vol), 3 min): +; croissance ([1]; Conc. 5 % (vol/vol), 5 min): -; croissance ([1]; Conc. 5 % (vol/vol), 15 min): -; croissance ([1]; Conc. 5 % (vol/vol), 30 min): -; croissance ([1]; Conc. 5 % (vol/vol), 60 min): -; croissance ([1]; Conc. 10 % (vol/vol), 1 min): -; croissance ([1]; Conc. 10 % (vol/vol), 3 min): -; croissance ([1]; Conc. 10 % (vol/vol), 5 min): -; croissance ([1]; Conc. 10 % (vol/vol), 15 min): -; croissance ([1]; Conc. 10 % (vol/vol), 30 min): -; croissance ([1]; Conc. 10 % (vol/vol), 60 min): -; croissance ([1]; Conc. 25 % (vol/vol), 1 min): -; croissance ([1]; Conc. 25 % (vol/vol), 3 min): -; croissance ([1]; Conc. 25 % (vol/vol), 5 min): -; croissance ([1]; Conc. 25 % (vol/vol), 15 min): -; croissance ([1]; Conc. 25 % (vol/vol), 30 min): -; croissance ([1]; Conc. 25 % (vol/vol), 60 min): -; croissance (S. aureus ATCC 6538; Conc. 0,1 % (vol/vol), 1 min): +; croissance (S. aureus ATCC 6538; Conc. 0,1 % (vol/vol), 3 min): +; croissance (S. aureus ATCC 6538; Conc. 0,1 % (vol/vol), 5 min): +; croissance (S. aureus ATCC 6538; Conc. 0,1 % (vol/vol), 15 min): +; croissance (S. aureus ATCC 6538; Conc. 0,1 % (vol/vol), 30 min): +; croissance (S. aureus ATCC 6538; Conc. 0,1 % (vol/vol), 60 min): +; croissance (S. aureus ATCC 6538; Conc. 0,05 % (vol/vol), 1 min): +; croissance (S. aureus ATCC 6538; Conc. 0,5 % (vol/vol), 1 min): +; croissance (S. aureus ATCC 6538; Conc. 0,05 % (vol/vol), 3 min): +; croissance (S. aureus ATCC 6538; Conc. 0,5 % (vol/vol), 3 min): +; croissance (S. aureus ATCC 6538; Conc. 0,05 % (vol/vol), 5 min): +; croissance (S. aureus ATCC 6538; Conc. 0,5 % (vol/vol), 5 min): +; croissance (S. aureus ATCC 6538; Conc. 0,05 % (vol/vol), 15 min): +; croissance (S. aureus ATCC 6538; Conc. 0,5 % (vol/vol), 15 min): +; croissance (S. aureus ATCC 6538; Conc. 0,05 % (vol/vol), 30 min): +; croissance (S. aureus ATCC 6538; Conc. 0,5 % (vol/vol), 30 min): +; croissance (S. aureus ATCC 6538; Conc. 0,05 % (vol/vol), 60 min): +; croissance (S. aureus ATCC 6538; Conc. 0,5 % (vol/vol), 60 min): +; croissance (S. aureus ATCC 6538; Conc. 1 % (vol/vol), 1 min): +; croissance (S. aureus ATCC 6538; Conc. 1 % (vol/vol), 3 min): +; croissance (S. aureus ATCC 6538; Conc. 1 % (vol/vol), 5 min): +; croissance (S. aureus ATCC 6538; Conc. 1 % (vol/vol), 15 min): +; croissance (S. aureus ATCC 6538; Conc. 1 % (vol/vol), 30 min): -; croissance (S. aureus ATCC 6538; Conc. 1 % (vol/vol), 60 min): -; croissance (S. aureus ATCC 6538; Conc. 5 % (vol/vol), 1 min): +; croissance (S. aureus ATCC 6538; Conc. 5 % (vol/vol), 3 min): +; croissance (S. aureus ATCC 6538; Conc. 5 % (vol/vol), 5 min): +; croissance (S. aureus ATCC 6538; Conc. 5 % (vol/vol), 15 min): -; croissance (S. aureus ATCC 6538; Conc. 5 % (vol/vol), 30 min): -; croissance (S. aureus ATCC 6538; Conc. 5 % (vol/vol), 60 min): -; croissance (S. aureus ATCC 6538; Conc. 10 % (vol/vol), 1 min): +; croissance (S. aureus ATCC 6538; Conc. 10 % (vol/vol), 3 min): -; croissance (S. aureus ATCC 6538; Conc. 10 % (vol/vol), 5 min): -; croissance (S. aureus ATCC 6538; Conc. 10 % (vol/vol), 15 min): -; croissance (S. aureus ATCC 6538; Conc. 10 % (vol/vol), 30 min): -; croissance (S. aureus ATCC 6538; Conc. 10 % (vol/vol), 60 min): -; croissance (S. aureus ATCC 6538; Conc. 25 % (vol/vol), 1 min): +; croissance (S. aureus ATCC 6538; Conc. 25 % (vol/vol), 3 min): -; croissance (S. aureus ATCC 6538; Conc. 25 % (vol/vol), 5 min): -; croissance (S. aureus ATCC 6538; Conc. 25 % (vol/vol), 15 min): -; croissance (S. aureus ATCC 6538; Conc. 25 % (vol/vol), 30 min): -; croissance (S. aureus ATCC 6538; Conc. 25 % (vol/vol), 60 min): -; croissance ([2]; Conc. 0,1 % (vol/vol), A): +; croissance ([2]; Conc. 0,1 % (vol/vol), B): +; croissance ([2]; Conc. 0,1 % (vol/vol), C): +; croissance ([2]; Conc. 0,1 % (vol/vol), non): -; croissance ([2]; Conc. 0,05 % (vol/vol), A): +; croissance ([2]; Conc. 0,5 % (vol/vol), A): +; croissance ([2]; Conc. 0,05 % (vol/vol), B): +; croissance ([2]; Conc. 0,5 % (vol/vol), B): +; croissance ([2]; Conc. 0,05 % (vol/vol), C): +; croissance ([2]; Conc. 0,5 % (vol/vol), C): +; croissance ([2]; Conc. 0,05 % (vol/vol), non): +; croissance ([2]; Conc. 0,5 % (vol/vol), non): -; croissance ([2]; Conc. 1,0 % (vol/vol), A): +; croissance ([2]; Conc. 1,0 % (vol/vol), B): +; croissance ([2]; Conc. 1,0 % (vol/vol), C): +; croissance ([2]; Conc. 1,0 % (vol/vol), non): -; croissance ([2]; Conc. 0,00625 % (vol/vol), A): +; croissance ([2]; Conc. 0,00625 % (vol/vol), B): +; croissance ([2]; Conc. 0,00625 % (vol/vol), C): +; croissance ([2]; Conc. 0,00625 % (vol/vol), non): +; croissance ([2]; Conc. 0,0125 % (vol/vol), A): +; croissance ([2]; Conc. 0,0125 % (vol/vol), B): +; croissance ([2]; Conc. 0,0125 % (vol/vol), C): +; croissance ([2]; Conc. 0,0125 % (vol/vol), non): +; croissance ([2]; Conc. 0,025 % (vol/vol), A): +; croissance ([2]; Conc. 0,025 % (vol/vol), B): +; croissance ([2]; Conc. 0,025 % (vol/vol), C): +; croissance ([2]; Conc. 0,025 % (vol/vol), non): +; concentration en substance active inhibant la croissance ([2]; antiseptique seul): 0,0001%
